Reference: ChEMBL document CHEMBL3228040 (J Med Chem, 1979)
Active and inactive are the calls of the source. The rule behind the calls is not given here.

Tests used:
[1] = system: Mus musculus; experiment: Analgesic activity in sc dosed mouse by hot plate assay; assay type: functional
[2] = species: Mus musculus; experiment: (§1) Analgesic activity in mouse by tail flick assay; assay type: functional
[3] = species: Mus musculus; experiment: as §1; assay type: functional, organism-based
[4] = system: Rhesus monkey; experiment: Effect on physical dependence capacity in morphine-dependent rhesus monkey up to 16 mg/kg by single-dose suppression test; assay type: functional, organism-based; parameters: dose 16 mg/kg; conditions: Macaca mulatta
[5] = target: Opioid receptor (Rattus norvegicus, UniProt P33533+P34975+P33535); experiment: Displacement of radiolabeled dihydromorphine from opioid receptor in rat brain homogenates; assay type: tissue-based
[6] = species: Mus musculus; experiment: Analgesic activity in mouse assessed as inhibition of PPQ-induced writhing; assay type: functional
[7] = system: Rhesus monkey; experiment: Effect on physical dependence capacity in morphine-dependent rhesus monkey at 1.2 mg/kg by single-dose suppression test; assay type: functional, organism-based; parameters: dose 1.2 mg/kg; conditions: Macaca mulatta
[8] = system: Rhesus monkey; experiment: Effect on physical dependence capacity in morphine-dependent rhesus monkey at 20 mg/kg by single-dose suppression test; assay type: functional, organism-based; parameters: dose 20 mg/kg; conditions: Macaca mulatta
[9] = species: Mus musculus; experiment: Analgesic activity in mouse by Nilsen assay; assay type: functional
[10] = system: Rhesus monkey; experiment: Effect on physical dependence capacity in morphine-dependent rhesus monkey assessed as partial suppression of abstinence signs at 20 to 40 mg/kg by single-dose suppression test; assay type: functional, organism-based; conditions: Macaca mulatta

Row | Compound | ED50 [1] | EC50 [5] | other results
1 | CN1CC[C@]23c4c5ccc(O)c4O[C@H]2[C@@H](O)C=C[C@H]3[C@H]1C5 [MORPHINE] | 1.2 mg/kg | – | –
2 | CCOC(=O)C1(c2ccccc2)CCN(C)CC1 [MEPERIDINE] | 4.7 mg/kg | – | –
3 | CC[C@H]1C2Cc3ccc(O)cc3[C@@]1(C)CCN2CCC(N)=O (mixture of isomers) | 19.3 mg/kg | 9 nM | Activity [2]: inactive; inhibition [3]: inactive; Activity [4]: inactive; inhibition [6]: inactive
4 | CC[C@H]1C2Cc3ccc(O)cc3[C@@]1(C)CCN2CCC#N (mixture of isomers) | 0.21 mg/kg | 4 nM | ED50 [2]: 0.8 mg/kg; inhibition [3]: inactive; ED50 [6]: 0.09 mg/kg; Activity [7]: Active
5 | CCC(=O)C1(c2cccc(O)c2)CCN(C)CC1 [KETOBEMIDONE] | 0.8 mg/kg | 2 nM | –
6 | CCOC(=O)C1(c2ccccc2)CCN(CCC#N)CC1 | 100 mg/kg | 8000 nM | Activity [8]: inactive
7 | CCC(=O)C1(c2cccc(O)c2)CCN(CCC#N)CC1 | – | 1500 nM | ED50 [9]: > 50 mg/kg; Activity [10]: Active
8 | CC[C@H]1C2Cc3ccc(O)cc3[C@@]1(C)CCN2C (mixture of isomers) | 1.3 mg/kg | 15 nM | ED50 [2]: 6.4 mg/kg; ED50 [6]: 0.2 mg/kg; Activity [7]: Active
9 | CC1C2Cc3ccc(O)cc3C1(C)CCN2C (racemic) | 1.18 mg/kg | 9 nM | –
